Measurements from patent publication US9724366B2, “CD11 B[low] macrophages and conditioned media thereof for treating cancer and/or fibrosis” (CARMEL-HAIFA UNIVRSITY ECONOMIC CORPORATION LTD., priority 2012, dated 2017).

Assays:
[1] = tested on: macrophages recovered from peritoneal exudates; assay: Ex vivo macrophage switch to the CD11b^low phenotype by pro-resolving lipid mediators (flow cytometry); type: cell-based, mice; settings: mediators 50 nM, Dex 25 μg/ml
Experimental: FIG. 8 show promotion of macrophage switch to the CD11b^low phenotype by pro-resolving lipid mediators. Macrophages were recovered from peritoneal exudates 72 hrs post peritonitis initiation and incubated overnight with vehicle (RPMI 10% FBS+0.05% ethanol), RvD1, RvD2, PD1, LXB4, or 15-epi-LXA4, (all at 50 nM), apoptotic cells (M/N ratio of 1:5), or Dex (25 μg/ml). Then, the cells were stained for CD11b and analyzed by flow cytometry, and the percentage of CD11b^low (A) and CD11b^high (B) macrophages was determined. Results are mean±SE of two experiments (n=2). #P<0.005, $ P<0.01, * P<0.05 compared to vehicle.
Macrophages were recovered from peritoneal exudates 72 hrs post peritonitis initiation and incubated overnight with either RPMI 10% FBS+0.05% ethanol, the resolvins RvD1 or RvD2, […] PD1 or lipoxins LXB4, or 15-epi-LXA4, (all at 50 nM), apoptotic cells (M/N ratio of 1:5), or Dex (25 μg/ml). After 20 hours, the cells were stained for CD11b and analyzed by flow cytometry.

[2] = tested on: peritonitis-affected mice; assay: Murine zymosan A peritonitis, RvD1, RvE1 or Dex introduced into the peritoneum; type: in vivo; settings: for appearance of CD11b^low macrophages in peritoneal exudates, increases over vehicle treatment: RvD1, RvE1 100 ng/mouse, Dex 25 mg/mouse into peritoneum 48 h after peritonitis initiation, exudates at 66 h; for neutrophil numbers: peritoneal exudates
Experimental: Male C57BL/6 mice (6-8 wk) were injected intraperitionealy (I.P) with zymosan A (1 mg). 66 hours post zymosan A injection, the mice were euthanized by CO2, their peritoneal cavity was lavaged with 5 ml of phosphate buffered saline (PBS) and the peritoneal exudates were collected by centrifugation for further analysis and experimentation.
Peritoneal exudates were collected and exudate cells were stained with FITC-conjugated rat anti-mouse Ly-6G, PE-conjugated rat anti-mouse F4/80, and PerCP-conjugated rat anti-mouse CD11b (Biolegend) and analyzed by FACSCalibur (Beckton-Dickinson). Macrophages were isolated using EasySep PE selection magnetic beads following the manufacturer's instructions (StemCell Technologies).
In some experiments, the macrophages were sorted to CD11b^high and CD11b^low populations of >95% purity, using FACSaria (Beckton-Dickinson), and the separate populations were used for microscopic analysis and for ex vivo stimulation. In some experiments, PKH2-PCL green (0.25 mM, 0.5 mL) was injected I.P at 48 h and peritoneal cells were recovered 4 h later, immunostained for F4/80 and CD11b as above and analyzed for fluorescence intensity of different macrophage populations. In relevant experiments, vehicle, RvD1, RvE1 (100 ng/mouse each), or Dex (25 mg/mouse) were introduced to the peritoneum 48 h after peritonitis initiation, and the exudates were recovered after 66 h and analyzed as before.
Exudate cells or sorted CD11b^high and CD11b^low macrophages were stained with Hoechst, and enumerated under a fluorescent microscope (Zeiss). Two areas of two cover slips, each containing at least 50 (overall 200) macrophages were analyzed, and the average number of PMN engulfed per macrophage as well as the number of macrophages with cutoff numbers of engulfed PMN, were calculated.
Similar properties were attributed to glucocorticoids, such as dexamethasone (Dex), that inhibit leukocyte infiltration to inflammation sites and promote the clearance of apoptotic PMN by macrophages. To determine whether pro-resolving mediators regulate emergence of CD11b^low macrophages and thereby promote resolution, RvD1, RvE1, or Dex were introduced into peritonitis-affected mice, and the recovered leukocytes were collected and analyzed for macrophage and neutrophil numbers, macrophage CD11b expression, engulfment of PMN, and responsiveness to LPS. The results are presented in FIG. 8 of Schif-Zuck et al., 2011, which is incorporated herein by reference. […] In addition, RvD1, RvE1 and Dex enhanced the appearance of CD11b^low macrophages (32.8±8.8%, 46.2±1.8%, and 39.9±4.6% increases over vehicle treatment, for RvD1, RvE1, and Dex, respectively) in peritoneal exudates. […] To determine whether RvD1, RvE1, and Dex regulate apoptotic PMN engulfment by macrophages during resolution, exudate cells were enumerated for PMN engulfment and analyzed as in FIG. 2.

[3] = tested on: macrophages; assay: Cytokine secretion (ELISA) of macrophages from treated mice, unstimulated or activated with LPS; type: cell-based; settings: unstimulated and LPS-stimulated macrophages
Experimental: Exudate macrophages were sorted or separated using PE selection magnetic beads (StemCell Technologies) and incubated (1×10^6 cells in 0.5 mL of culture media) with LPS (0-1000 ng/mL), poly (I:C) (4 μg/mL), or CpG-ODN (1 μM). After 16 h, the supernatants were collected and their TNF-α, IL-β, IL-10, TGFβ, CCL2, CCL3, and CCL5 contents were determined by standard ELISA.
To validate the improvement in immune-silencing of macrophages that followed treatment with RvD1, RvE1 and Dex, macrophages were activated with LPS, and cytokine secretion was determined. […] Thus, treatment with RvD1, RvE1, and Dex, promoted macrophage immune-silencing, as well as the secretion of pro-resolving cytokines from these cells.

[4] = tested on: MEFs; assay: Apoptosis detection in MEFs by TUNEL; type: cell-based, mouse; settings: 1.5 μg/ml, 4 hours, positive control
Experimental: MEF cell line were cultured as described above in 8 well chamber glass slides, fixed with 4% PFA containing 5% sucrose and incubated for 1 hour with a mixture of TUNEL reaction mix according to the manufacturer's protocol (In Situ Cell death Detection Kit; TMR Red) covered with aluminum foil and placed in the 37° C., 5% CO2 incubator for 1 hour. Next, the slides were washed three times with PBS for 15 minutes each, and mounted with VECTASHIELD mounting medium with DAPI. The slides were imaged using a Nikon A1-R confocal laser scanning microscope (University of Haifa, Haifa, Israel).
3 images were captured from each well. Each captured frame was analyzed using NIS-Elements AR software to measure in the defined area the number of cells with positive DAPI staining, co-staining for DAPI and TUNEL (selected cells were larger than 8 μm), or Col-I expression by measuring sum intensity of area stained for Col-I per captured field.
Next we explored whether the inhibition of MEF proliferation by the CM-Mres was due to cell cycle arrest or increase in apoptosis of MEF. Therefore, we tested apoptosis of the MEFs at 48 hours. Therefore, MEFs were either untreated or were induced to differentiate on 8 chamber glass slides and were pre-incubated with CM-Mres 1 hour prior to adding TGFβ1. […] The cells were fixed and evaluated for apoptotic death by TUNEL staining. […]

Structure (SMILES): CCCCC[C@H](O)[C@H](O)/C=C/C=C/C=C\C=C\[C@@H](O)CCCC(=O)O [LXB4]
- macrophage switch to the CD11b^low phenotype [1]: promotes macrophage switch

Structure (SMILES): C[C@@H]1C[C@H]2[C@@H]3CCC4=CC(=O)C=C[C@]4(C)[C@@]3(F)[C@@H](O)C[C@]2(C)[C@@]1(O)C(=O)CO [Dex, dexamethasone]
- appearance of CD11b^low macrophages in peritoneal exudates, increases over vehicle treatment [2]: 39.9±4.6%

Structure (SMILES): CC/C=C\C[C@H](O)[C@H](O)/C=C/C=C/C=C\C=C\[C@@H](O)C/C=C\CCC(=O)O [RvD2]
- macrophage switch to the CD11b^low phenotype [1]: promotes macrophage switch

Structure (SMILES): CC[C@@H](O)/C=C/C=C\C[C@@H](O)/C=C/C=C/C=C\[C@@H](O)CCCC(=O)O [RvE1, 5S,12R,18R-trihydroxy-4Z,8E,10E,14Z,16E-eico sapentaenoic acid]
- appearance of CD11b^low macrophages in peritoneal exudates, increases over vehicle treatment [2]: 46.2±1.8%
- CD11b expression on CD11b^high macrophages ([2]; mouse, in vivo): reduced
- appearance in the peritoneum of low-engulfing macrophages (less than 2 N/M) ([2]; mouse, in vivo): induced
- neutrophil numbers [2]: induced a reduction
- secretion of TNFα [3]: inhibited

Structure (SMILES): CCCCC[C@@H](O)/C=C/C=C\C=C\C=C\[C@@H](O)[C@@H](O)CCCC(=O)O [15-epi-LXA4]
- macrophage switch to the CD11b^low phenotype [1]: promotes macrophage switch

Structure (SMILES): CN[C@@H]1C[C@H]2O[C@@](C)([C@@H]1OC)n1c3ccccc3c3c4c(c5c6ccccc6n2c5c31)C(=O)NC4 [staurosporine]
- percentage of apoptotic cells (TUNEL) [4]: no significant changes

Structure (SMILES): CC/C=C\C[C@H](O)/C=C/C=C\C=C\C=C\[C@@H](O)[C@@H](O)C/C=C\CCC(=O)O [RvD1, 7S,8R,17S-trihydroxy-4Z,9E,11E,13Z,15E,19Z-docosahexaenoic acid]
- appearance of CD11b^low macrophages in peritoneal exudates, increases over vehicle treatment [2]: 32.8±8.8%
- CD11b expression on CD11b^high macrophages ([2]; mouse, in vivo): reduced
- number of macrophages in peritoneal cavities ([2]; mouse, in vivo): reduced
- numbers of apoptotic PMN engulfed by macrophages present in the peritoneum ([2]; mouse, in vivo): reduced
- neutrophil numbers [2]: induced a reduction
- secretion of TNFα [3]: inhibited
- macrophage switch to the CD11b^low phenotype [1]: promotes macrophage switch

Structure (SMILES): CC/C=C\C[C@H](O)\C=C/C=C/C=C/[C@H](O)C/C=C\C/C=C\CCC(=O)O [PD1]
- macrophage switch to the CD11b^low phenotype [1]: promotes macrophage switch
